Measured values reported in article PMC8942558 (Emerging Microbes & Infections, 2022).
Like-named read-outs stand apart in the source and are kept apart here.

Tests used:
YFV-17D^DiD = format: cell-based, Yellow fever virus
[1] = system: WT-YFV strain FJYF03/2016; design: species or system C57 mice; settings: mouse, in vivo
[2] = system: WT-YFV strain FJYF03/2016; design: species or system A129^−/− mice; settings: mouse, in vivo
YFV-17D [3] = format: cell-based, Yellow fever virus
WNV = format: cell-based, West Nile virus
YFV = format: cell-based, Yellow fever virus
YFV replicon = format: cell-based, Yellow fever virus
YFV-17D [4] = format: cell-based, Yellow fever virus; remark: listed apart in the source
West Nile virus (WNV) = format: cell-based
WNV NS5 = WNV NS5 (West Nile virus, UniProt Q9Q6P4); test: biochemical; format: binding
hepatitis C virus (HCV) = format: cell-based
dengue virus (DENV) = format: cell-based
Zika virus (ZIKV) = format: cell-based
[5] = system: Japanese encephalitis virus (JEV); format: cell-based
YFV-17D [6] = format: cell-based, Yellow fever virus; remark: listed apart in the source
YFV-17D [7] = format: cell-based, Yellow fever virus; remark: listed apart in the source
YFV NS5 = YFV NS5 (Yellow fever virus, UniProt P03314); test: biochemical; format: binding
[8] = system: clathrin-mediated endocytosis; format: cell-based, Human

Sequence of YFV NS5 (P03314 2507-3411 limits assumed): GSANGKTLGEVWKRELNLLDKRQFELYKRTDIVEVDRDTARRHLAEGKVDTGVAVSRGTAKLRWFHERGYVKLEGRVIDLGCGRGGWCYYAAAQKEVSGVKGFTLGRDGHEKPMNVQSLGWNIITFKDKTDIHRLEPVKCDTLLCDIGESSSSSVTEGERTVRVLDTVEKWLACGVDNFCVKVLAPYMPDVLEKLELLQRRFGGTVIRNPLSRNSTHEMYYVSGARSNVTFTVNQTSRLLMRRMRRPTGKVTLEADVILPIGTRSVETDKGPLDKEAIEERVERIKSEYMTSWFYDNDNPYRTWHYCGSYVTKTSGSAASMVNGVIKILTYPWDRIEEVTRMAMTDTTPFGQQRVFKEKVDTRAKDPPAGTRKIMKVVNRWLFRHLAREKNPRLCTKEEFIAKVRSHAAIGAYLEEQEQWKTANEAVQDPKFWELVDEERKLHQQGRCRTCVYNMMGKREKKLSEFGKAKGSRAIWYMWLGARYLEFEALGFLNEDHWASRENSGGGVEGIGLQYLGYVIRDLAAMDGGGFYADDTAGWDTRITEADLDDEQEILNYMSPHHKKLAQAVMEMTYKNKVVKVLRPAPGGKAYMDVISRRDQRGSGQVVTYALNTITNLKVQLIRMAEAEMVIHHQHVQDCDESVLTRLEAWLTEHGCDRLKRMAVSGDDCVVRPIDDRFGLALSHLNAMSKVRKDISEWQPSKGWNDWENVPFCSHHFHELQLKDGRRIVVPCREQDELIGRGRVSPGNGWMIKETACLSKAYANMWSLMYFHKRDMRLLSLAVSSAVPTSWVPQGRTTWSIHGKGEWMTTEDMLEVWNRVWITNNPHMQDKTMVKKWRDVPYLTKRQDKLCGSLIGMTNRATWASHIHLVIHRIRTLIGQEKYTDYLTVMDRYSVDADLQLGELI
Sequence of WNV NS5 (Q9Q6P4 2529-3433 limits assumed): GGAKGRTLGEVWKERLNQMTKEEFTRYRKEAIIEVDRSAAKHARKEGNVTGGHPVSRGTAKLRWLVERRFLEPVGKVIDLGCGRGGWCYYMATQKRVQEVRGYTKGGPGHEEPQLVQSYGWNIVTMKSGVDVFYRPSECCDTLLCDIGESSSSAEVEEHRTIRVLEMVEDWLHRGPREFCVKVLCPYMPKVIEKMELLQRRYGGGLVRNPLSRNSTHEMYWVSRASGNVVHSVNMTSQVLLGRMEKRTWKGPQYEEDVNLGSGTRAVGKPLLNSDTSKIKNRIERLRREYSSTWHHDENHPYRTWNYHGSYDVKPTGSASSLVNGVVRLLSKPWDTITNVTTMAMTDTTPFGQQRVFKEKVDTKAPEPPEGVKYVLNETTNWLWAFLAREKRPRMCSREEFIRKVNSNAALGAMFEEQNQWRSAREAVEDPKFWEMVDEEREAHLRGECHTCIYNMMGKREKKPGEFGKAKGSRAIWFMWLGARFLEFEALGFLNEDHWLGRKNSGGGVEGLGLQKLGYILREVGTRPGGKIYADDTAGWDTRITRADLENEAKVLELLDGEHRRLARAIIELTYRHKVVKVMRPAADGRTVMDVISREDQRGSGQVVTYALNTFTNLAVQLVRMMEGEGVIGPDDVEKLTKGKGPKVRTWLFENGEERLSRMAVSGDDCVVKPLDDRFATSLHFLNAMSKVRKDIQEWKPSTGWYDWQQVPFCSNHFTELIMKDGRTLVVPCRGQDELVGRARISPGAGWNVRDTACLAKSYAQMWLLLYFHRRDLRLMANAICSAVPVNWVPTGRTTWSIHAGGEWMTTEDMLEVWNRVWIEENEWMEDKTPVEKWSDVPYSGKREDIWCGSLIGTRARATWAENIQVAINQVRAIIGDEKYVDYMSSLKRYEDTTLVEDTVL

## Cl.N [NH4Cl]
YFV-17D^DiD
  virion-host cell fusion (DiD fluorescence signal): fluorescence signal reduced significantly

## CO[C@H]1/C=C/O[C@@]2(C)Oc3c(C)c(O)c4c(O)c(c(/C=N/N5CCN(C6CCCC6)CC5)c(O)c4c3C2=O)NC(=O)/C(C)=C\C=C\[C@H](C)[C@H](O)[C@@H](C)[C@@H](O)[C@@H](C)[C@H](OC(C)=O)[C@@H]1C [Rifapentine]
[1]
  body weight of surviving mice: all recovered to normal levels
  clinical symptoms: fewer injury features
  survival of mice: significantly improved the survival of mice
  survival rate: approximately 40%
[2]
  body weight of survival mice: recovered to almost the normal level
  clinical signs: slowed down or reduced the occurrence of clinical signs
  survival rate: significantly enhanced the survival rate
  virus titres in kidney: did not recognize distinctive changes
  virus titres in liver: did not recognize distinctive changes
  virus titres in serum: reduced virus titres significantly
  virus titres in spleen: reduced virus titres significantly
YFV-17D [3]
  intracellular YFV RNA level: suppressed in a dose-dependent manner
WNV
  WNV binding: did not affect WNV binding
YFV
  YFV assembly and release: did not influence YFV assembly and release
YFV replicon
  YFV replication in replicon cells: robustly abolished YFV replication from 1 to 25 μM
YFV-17D [4]
  effect on YFV infection in kinetic test: obstructive effect on YFV infection throughout the entire phase of viral entry and post-entry stages
YFV-17D^DiD
  virion-host cell fusion (DiD fluorescence signal): no inhibitory effect
West Nile virus (WNV)
  inhibitory effect on WNV infection: slight suppressive activity above 5 μM
WNV NS5
  Kd: 54.6 µM
Hepatitis C virus (HCV)
  inhibitory effect on HCV infection: no obvious inhibitory effect
Dengue virus (DENV)
  inhibitory effect on DENV infection: no obvious inhibitory effect
Zika virus (ZIKV)
  inhibitory effect on ZIKV infection: no obvious inhibitory effect
[5]
  inhibitory effect on JEV infection: no obvious inhibitory effect
YFV-17D [6]
  YFV attachment to the cell surface: impeded YFV attachment to the cell surface in a dose-dependent manner
YFV-17D [7]
  infectivity of virions incubated with compound: no obvious differences in infectivity
YFV NS5
  Kd: 20.8 µM
[8]
  TF uptake: No major changes

## CC(C)OC(=O)[C@H](C)N[P@](=O)(OC[C@H]1O[C@@H](n2ccc(=O)[nH]c2=O)[C@](C)(F)[C@@H]1O)Oc1ccccc1 [Sofosbuvir]
[2]
  survival rate: slight protective activity in the highest infection-dose group
YFV replicon
  YFV replication in replicon cells: relatively good inhibitory effect
YFV NS5
  Kd: 6140 µM

## CO/C1=C\C(C)=C\[C@@H](C)[C@@H](O)[C@@H](C)C/C(C)=C/C=C/[C@H](OC)[C@@H]([C@@H](C)[C@@H](O)[C@H](C)[C@@]2(O)C[C@@H](O)[C@H](C)[C@@H](C(C)C)O2)OC1=O [bafilomycin A1]
YFV-17D^DiD
  virion-host cell fusion (DiD fluorescence signal): fluorescence signal reduced significantly
